# Source: paper PMC8194371 (Journal of medicinal chemistry, 2021)
# Where “and” joins values, the source holds several entries; their conditions need not be identical. Equal entries are not always repeated. Where two headings read alike, the source gives them in different places.
# Assays:
# [1] = tested on: Mtb strain CDC1551 dop::MycoMarT7 expressing pupGGE; experiment: Accumulation of pupylated proteins; type: cell-based, Mycobacterium tuberculosis
# [2] = molecular target: β5c of the human c-20S (Homo sapiens, UniProt P28074); experiment: human constitutive proteasome β5c inhibition, suc-LLVY-AMC; type: biochemical; conditions: for SIapp IC50–β5c / IC50–Mtb20S: apparent selectivity index, rounded to three or fewer significant figures
# [3] = molecular target: β5i of the human i-20S (Homo sapiens, UniProt P28062); type: biochemical
# [4] = tested on: Mtb strain MHD1441 (H37Rv WT + pSCK1); type: cell-based, Mycobacterium tuberculosis; conditions: 0.1-33 μM, day 4
# [5] = tested on: HepG2 cells; experiment: Viability of HepG2 cells; conditions: at 30 μM
# [6] = Kinetic solubility; type: physicochemical; conditions: PBS buffer
# [7] = molecular target: Mtb20SOG (Mycobacterium tuberculosis, UniProt P9WHT9); experiment: Mtb20SOG proteasome inhibition, suc-LLVY-AMC hydrolysis; type: biochemical; conditions: Mtb20S IC50, text values
# Chain of Mtb20SOG (P9WHT9 58-291): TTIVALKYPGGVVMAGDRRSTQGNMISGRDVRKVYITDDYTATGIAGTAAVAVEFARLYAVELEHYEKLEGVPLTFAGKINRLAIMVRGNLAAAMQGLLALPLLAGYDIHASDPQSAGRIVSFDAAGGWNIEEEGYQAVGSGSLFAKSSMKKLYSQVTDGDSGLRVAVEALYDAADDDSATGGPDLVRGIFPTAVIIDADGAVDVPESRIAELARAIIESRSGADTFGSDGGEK
SMILES,SIapp IC50–β5c / IC50–Mtb20S [2],SIapp IC50–β5i / IC50–Mtb20S [3],other results
"CC(C)C[C@H](NC(=O)[C@H](CCc1ccccc1)NC(=O)CN1CCOCC1)C(=O)N[C@@H](Cc1ccccc1)C(=O)N[C@@H](CC(C)C)C(=O)[C@@]1(C)CO1 [Carfilzomib, reference compound]",,,accumulation of pupylated proteins [1]: led to accumulation of pupylated proteins
O=C1CCCCCCCCCC[C@@H](C(=O)NCc2cccc3ccccc23)NC(=O)[C@H](CC(=O)N2CCCC2)N1 [Macrocycle 2],>674,>674,
O=C1CCCCCCCCC[C@@H](C(=O)NCc2cccc3ccccc23)NC(=O)[C@H](CC(=O)N2CCCC2)N1 [Macrocycle 3],>141,>141,
O=C1CCCCCCCCOC[C@@H](C(=O)NCc2cccc3ccccc23)NC(=O)[C@H](CC(=O)N2CCCC2)N1 [Macrocycle 4],>984,>984,
O=C1CCc2cccc(c2)Oc2ccc(cc2)C[C@@H](C(=O)NCc2ccccc2F)NC(=O)[C@H](CC(=O)N2CCCC2)N1 [Macrocycle 5],>500,,
O=C1CCc2cccc(c2)Oc2ccc(cc2)C[C@@H](C(=O)NCc2ccccc2F)NC(=O)[C@H](CC(=O)N2CCC[C@@H]2c2ccccc2)N1 [Macrocycle 6],">13,600",">13,600","selectivity for Mtb20S over human c-20S [2]: > 13,600 fold and > 10,000 fold; selectivity for Mtb20S over human i-20S [3]: > 13,600 fold and > 10,000 fold; Pup-GFP accumulation (RFU normalized by OD) [4]: dose-dependent increase of RFU; accumulation of pupylated proteins ([1]; macrocycle 6 at 1, 3, or 10 μM for 48 h, CFZ at 50 μM): dose-dependently promoted the accumulation of pupylated proteins; cytotoxicity toward HepG2 [5]: no appreciable cytotoxicity"
O=C1CCCCCCCCOC[C@@H](C(=O)NCc2ccccc2F)NC(=O)[C@H](CC(=O)N2CCC[C@@H]2c2ccccc2)N1 [Macrocycle 9],">14,000",">14,000","solubility at 24 h ([6]; pH 6.8): 1.4 µg/mL; solubility at 24 h ([6]; pH 6.8, aqueous buffer, kinetic from dmso stock): < 1.4 µg/mL"
O=C1CCc2cccc(c2)OCCCC[C@@H](C(=O)NCc2ccccc2F)NC(=O)[C@H](CC(=O)N2CCC[C@@H]2c2ccccc2)N1 [Macrocycle 10],">14,400",">14,400","selectivity for Mtb20S over human c-20S [2]: > 14,400 fold; selectivity for Mtb20S over human i-20S [3]: > 14,400 fold; Pup-GFP accumulation (RFU normalized by OD) [4]: dose-dependent increase of RFU; cytotoxicity toward HepG2 [5]: no appreciable cytotoxicity"
O=C1CCc2cccc(c2)OCCCC[C@@H](C(=O)NCc2ccccc2F)NC(=O)[C@H](CC(=O)N2CCC[C@@H]2C2CC2)N1 [Macrocycle 11],,,IC50 [7]: 6.5 nM
